Where a SMILES comes first, the peptide text is derived from it. The star is where a group is joined. Cbz = O=C(OCc1ccccc1)*

The results in this text go back to US6686449B2, “Mutant presenilin 1 polypeptides” (Pharmacia & Upjohn Company, priority 2000, dated 2004).

Common to all, as to format: cell-based, human
Assay [1] relates to Aβ1-40 production in H125.3-16 (APP-Sw-KK) and APA2 (APP-Sw-KK and PS1-wt) cells. Briefly: Inhibition assay, stable cell lines: Elisa of Aβ1-40 in conditioned media, PS1wt cell lines. Particulars: PS1wt cell lines (H125.3-16, APA2). The source says:
(§1) The purpose of the experiment was to assess the effect of compounds known or postulated to have an effect on processing at the proposed gamma cleavage site
(§2) The compounds used were L685,458 (Bachem Cat # H-5106) described by Li et al (15), one we have designated 512088, a fenchylamine sulfonamide inhibitor described by Rishton et al. (16). Z-Leu-Leu-Leu-H, also known as MG132 (Peptide Institute Cat # 3175-v) described by Tajima et al (17), and DMSO (Aldrich Cat # 27,685-5) as a vehicle control. All drugs were resuspended in DMSO at a concentration of 10 mM. Serial dilutions of the drugs were made in cell culture media [DMEM (Gibco cat # 11965-092) supplemented with 10% fetal bovine serum, 1 mM sodium pyruvate, 100 units/ml penicillin G, 100 ug/ml streptomycin sulfate, and 400 ug/ml Geneticin]. Stable cell lines used for drug testing were H125.3-16 (expressing APP-Sw-KK), APA2 (co-expressing APP-Sw-KK and PS1-wt), APB10 (co-expressing APP-Sw-KK and PS1-DTG385), and APD3 (co-expressing APP-Sw-KK and PS1-M146V). […] Conditioned media was harvested 24 hours post-treatment and analyzed in an Elisa assay for Aβ40 or Aβ42 levels (Described below). […]
(§3) Primary Antibody 6E10 was purchased from Senetek PLC (St. Louis, Mo.). […] Plates were read on a Molecular Devices Thermomax Plate Reader with integrated software that calculated the data and analyzed confidence values for the samples. […]

Assay [2] deals with Aβ1-40 production in APB10 cells (APP-Sw-KK and PS1-DTG385). Briefly: Inhibition assay, stable cell lines: Elisa of Aβ1-40 in conditioned media, PS1-DTG385 cell line.
Excerpt: as §1, §2, §3

In assay [3] the test system is Aβ1-42 production in H125.3-16 (APP-Sw-KK) and APA2 (APP-Sw-KK and PS1-wt) cells. Description: Inhibition assay, stable cell lines: Elisa of Aβ1-42 in conditioned media, PS1wt cell lines. The settings on record: for dose response profile, Aβ1-42 production: PS1wt cell lines (H125.3-16, APA2).
Excerpt: as §1
(§4) The compounds used were L685,458 (Bachem Cat # H-5106) described by Li et al (15), one we have designated 512088, a fenchylamine sulfonamide inhibitor described by Rishton et al. (16). Z-Leu-Leu-Leu-H, also known as MG132 (Peptide Institute Cat # 3175-v) described by Tajima et al (17), and DMSO (Aldrich Cat # 27,685-5) as a vehicle control. All drugs were resuspended in DMSO at a concentration of 10 mM. Serial dilutions of the drugs were made in cell culture media [DMEM (Gibco cat # 11965-092) supplemented with 10% fetal bovine serum, 1 mM sodium pyruvate, 100 units/ml penicillin G, 100 ug/ml streptomycin sulfate, and 400 ug/ml Geneticin]. Stable cell lines used for drug testing were H125.3-16 (expressing APP-Sw-KK), APA2 (co-expressing APP-Sw-KK and PS1-wt), APB10 (co-expressing APP-Sw-KK and PS1-DTG385), and APD3 (co-expressing APP-Sw-KK and PS1-M146V). APP-Sw-KK (An APP construct with a di-lysine motif at the C terminus) has been described in U.S. patent application Ser. No. 09/416901 filed Oct. 13, 1999 and also in WO 00/17369 “Alzheimer's Disease Secretase” published Mar. 30, 2000. Cells were plated at a concentration of 2.5×10^4 or 5.0×10^4 cells per well of a 96 well dish on day 1. Cells were treated with various concentrations of drugs on day 3. Conditioned media was harvested 24 hours post-treatment and analyzed in an Elisa assay for Aβ40 or Aβ42 levels (Described below). An MTS assay (Promega) was performed on the cells 24 hours post-treatment to assess toxicity levels of the drugs.
as §3

Assay [4] relates to Aβ1-42 production in APB10 cells (APP-Sw-KK and PS1-DTG385). Briefly: Inhibition assay, stable cell lines: Elisa of Aβ1-42 in conditioned media, PS1-DTG385 cell line. The settings on record: for dose response profile, Aβ1-42 production: PS1-DTG385 cell line.
Excerpt: as §1, §4
Primary Antibody 6E10 was purchased from Senetek PLC (St. Louis, Mo.). Secondary Antibodies 162, 163, 164 and 165 were purchased from New York Institute for Basic Research (Staten Island, N.Y.). β Bachem (Torrence, Calif.). β-Amyloid 1-40 is cat #ZN571) and 1-42 is cat #ZN327) Neutravidin was purchased from Pierce (Rockford, Ill.). The tetramethylbenzidine color development system was purchased from Kirkigaard & Perry Laboratories Inc. (Gaithersburg, Md.). Plates were read on a Molecular Devices Thermomax Plate Reader with integrated software that calculated the data and analyzed confidence values for the samples.
The coating buffer is 0.1M NaHCO3, pH8.2. Wash buffer is Dulbecco's PBS+0.05% Tween 20 (PBST). Blocking buffer is PBST+1% BSA (make up fresh the day of assay). The substrate is TMB Kirkegaard & Perry Labs. (cat.no.50-76-03). Plates are Costar 96 well half area EIA plates (cat.no.3690). Supplemental BSA is supplied as PBST+10% BSA made fresh on the day of assay.
1. Coat half area 96 well plates (Costar 3690) overnight @ 4° C. with capture antibody 6E10 (50 μl/well) made at […] in coating buffer, pH8.2.
2. Wash plates on an automatic plate washer 1× with wash buffer (175 μl/well).
3. Add 75 ul of blocking buffer to each well. Incubate 1 hr. @room temperature, then wash 3×.
4. Make standard curves from fresh aliquots for each amyloid in blocking buffer as follows:
b. Aβ 1-42 (10 μM. stock in DMSO): Make an initial dilution of […] then follow the instructions for Abeta 1-40 starting at the 1:100 dilution.
5. Add 50 μl of each std. (use duplicates) or sample dilution into the appropriate wells.
Incubate the standards and unknown samples @ room temperature for 3 to 4 hrs. If the samples being assayed contain no protein, 5 μl. of supplemental 10% BSA should be added to the sample wells before adding 50 μl. of sample.
6. […]

For assay [5], the system named is gamma-secretase (Aβ1-40 and Aβ1-42 production in three stable cell lines). Briefly: Inhibition assay, stable cell lines: overall potency on Aβ1-40 and Aβ1-42 production. Particulars: greater than 512088.
Excerpt: as §1
The compounds used were L685,458 (Bachem Cat # H-5106) described by Li et al (15), one we have designated 512088, a fenchylamine sulfonamide inhibitor described by Rishton et al. (16). Z-Leu-Leu-Leu-H, also known as MG132 (Peptide Institute Cat # 3175-v) described by Tajima et al (17), and DMSO (Aldrich Cat # 27,685-5) as a vehicle control. All drugs were resuspended in DMSO at a concentration of 10 mM. Serial dilutions of the drugs were made in cell culture media [DMEM (Gibco cat # 11965-092) supplemented with 10% fetal bovine serum, 1 mM sodium pyruvate, 100 units/ml penicillin G, 100 ug/ml streptomycin sulfate, and 400 ug/ml Geneticin]. Stable cell lines used for drug testing were H125.3-16 (expressing APP-Sw-KK), APA2 (co-expressing APP-Sw-KK and PS1-wt), APB10 (co-expressing APP-Sw-KK and PS1-DTG385), and APD3 (co-expressing APP-Sw-KK and PS1-M146V). APP-Sw-KK (An APP construct with a di-lysine motif at the C terminus) has been described in U.S. patent application Ser. No. 09/416901 filed Oct. 13, 1999 and also in WO 00/17369 “Alzheimer's Disease Secretase” published Mar. 30, 2000. […] Conditioned media was harvested 24 hours post-treatment and analyzed in an Elisa assay for Aβ40 or Aβ42 levels (Described below). […]

Regarding `CC(C)C[C@@H](C=O)NC(=O)[C@H](CC(C)C)NC(=O)[C@H](CC(C)C)NC(=O)OCc1ccccc1` [MG132, Z-Leu-Leu-Leu-H] (Cbz-Leu-Leu-Leu-aldehyde), the “dose response profile, inhibition of Aβ1-40” value is on record as “not strongly biphasic in any of the cell lines except the parental PS1wt HEK125.3-16” in assay [1] and “not strongly biphasic” in assay [2]. Besides, the “dose response profile, Aβ1-42 production” value in assay [3] is listed as “strongly biphasic”; in assay [4] it was “not strongly biphasic”. In addition, the “peak in the dose response (Aβ1-42)” value in assay [3] (PS1wt cell lines, FIG. 8) stood at 10 µM; in assay [4] (PS1DTG385 cells, FIG. 8), 0.3 µM. Further, the “potentiation of production of Aβ1-42 relative to Aβ1-40” value in assay [4] (PS1DTG385 cells) is reported as “does not happen”.

As to `CC(C)C[C@H](NC(=O)[C@H](Cc1ccccc1)C[C@@H](O)[C@H](Cc1ccccc1)NC(=O)OC(C)(C)C)C(=O)N[C@@H](Cc1ccccc1)C(N)=O` [L685,458], the “dose response profile, inhibition of Aβ1-40” value in assay [1] is “biphasic dose response”; in assay [2], “linear decrease”. Besides, the “dose response profile, Aβ1-42 production” value is given as “biphasic” in assay [3] and “clearly biphasic” in assay [4]. Further, the “shift of the dose response compared with the PS1wt cell lines” value in assay [4] (PS1DTG385 cells) is on record as “slightly lower potency”. The “potency relative to 512088” value in assay [5] was “approximately 10 fold”.
